Results from US5043328A, “Formulations containing unsaturated fatty acids for the synthesis of prostaglandins and hydroxy-fatty acids in biological systems” (priority 1986, dated 1991).
“Also recorded” adds a separate entry of the source. Where two headings read alike, the source gives them in different places.

Assays:
[1] = for undesired decomposition / byproducts of polyunsaturated fatty acid (arachidonic acid) with added stimulator: aqueous medium; for undesired decomposition / byproducts of polyunsaturated fatty acid (arachidonic acid) with added stimulator / effect of solvent used instead of water on formation of undesired byproducts: result in words; for effect of solvent used instead of water on formation of undesired byproducts: fatty acid with stimulator
Method: Method 1: Investigation of the Stability of Unsaturated Fatty Acids in the Formulations
The stabilizing action of substances on polyunsaturated fatty acids was investigated as follows:
Test A for Water-Soluble Substances:
0.125 mg of unsaturated fatty acid or Na salt (see tables) (sodium arachidonate, from Sigma, Munich, Germany) is dissolved in 0.05 ml of water. 0.2 ml of aqueous solution which contains 2 mg of stabilizer and can additionally contain 2 mg of stimulator is mixed in (cf. Table 1), 0.1 ml is then taken out immediately, extracted and analysed (see below). Further processing according to modification 1 or 2.
Modification 1 for Aqueous Solutions
After 24 hours incubation at 37° C., 0.1 ml is again taken, extracted and analysed (see below).
Modification 2 for Solid Mixtures (Lyophilisates)
The test solution is lyophilized, the lyophilisate is incubated for 24 hours at 37° C. and then dissolved again in the previous quantity of water, and 0.1 ml is taken, extracted and analysed (see below).
Test B for Water-Insoluble Substances:
0.125 mg of unsaturated fatty acid (arachidonic acid, 5,8,11,14,17-eicosapentaenoic acid or 8,11,14-eicosatrienoic acid, from Sigma, Munich) is dissolved in 0.05 ml of ethanol or dimethyl sulfoxide. 0.2 ml of ethanol (or dimethyl sulfoxide) which contains 2 mg of stabilizer and can additionally contain 2 mg of the stimulator (cf. Table 1) is added thereto, and 0.1 ml is taken immediately and, as below, extracted and analysed. Further treatment according to modification 1 or 2.
Modification 1 for Solutions
After 24 hours' incubation at 37° C., 0.1 ml is again taken, mixed with 0.1 ml of water, extracted and analysed.
Modification 2 for Solid Mixtures
The remaining solution is freed of solvent, incubated for 24 hours at 37° C. and then dissolved again in 0.15 ml of solvent, and 0.1 ml is taken, mixed with 0.1 ml of water, extracted and analysed.
0.05 ml of 1.2M aqueous citric acid solution is added to the samples obtained, and the samples are extracted with twice 0.5 ml of ethyl acetate, the ethyl acetate is removed from the combined extracts and the residue is dissolved in 0.8 ml of methanol and analysed by means of high-pressure liquid chromatography (HPLC) (Rad Pak C-18 column, 100×8 mm, from Waters, Konigstein, Germany, 1.5 ml/minute, solvent 800 ml of methanol, 200 ml of water and 0.1 ml of glacial acetic acid). The separation is monitored with a commercially available UV detector at 206 nm.
The prostaglandins PGE2, PGF2 alpha and PGD2 as products from arachidonic acid where quantified by means of method 2, and the sum was related as "total prostaglandin" to 100%. The quantity of "total prostaglandin" formed without the addition of a stimulator was set at f=1; the quantity formed after stimulation was related thereto. f=2 or f=3 therefore means twice or three times the stimulation under the conditions of method 2. The stability of the sample was investigated by means of method 1 (right-hand column). […] Values greater than 25-28% therefore represent a stabilization, and values smaller than 25-28% represent a destabilization. Example No. 1 was carried out without a stimulator.

[2] = target: T1, enzyme (from seminal vesicles of sheep) (Ovis aries, UniProt P05979)
T1 sequence (P05979 25-600): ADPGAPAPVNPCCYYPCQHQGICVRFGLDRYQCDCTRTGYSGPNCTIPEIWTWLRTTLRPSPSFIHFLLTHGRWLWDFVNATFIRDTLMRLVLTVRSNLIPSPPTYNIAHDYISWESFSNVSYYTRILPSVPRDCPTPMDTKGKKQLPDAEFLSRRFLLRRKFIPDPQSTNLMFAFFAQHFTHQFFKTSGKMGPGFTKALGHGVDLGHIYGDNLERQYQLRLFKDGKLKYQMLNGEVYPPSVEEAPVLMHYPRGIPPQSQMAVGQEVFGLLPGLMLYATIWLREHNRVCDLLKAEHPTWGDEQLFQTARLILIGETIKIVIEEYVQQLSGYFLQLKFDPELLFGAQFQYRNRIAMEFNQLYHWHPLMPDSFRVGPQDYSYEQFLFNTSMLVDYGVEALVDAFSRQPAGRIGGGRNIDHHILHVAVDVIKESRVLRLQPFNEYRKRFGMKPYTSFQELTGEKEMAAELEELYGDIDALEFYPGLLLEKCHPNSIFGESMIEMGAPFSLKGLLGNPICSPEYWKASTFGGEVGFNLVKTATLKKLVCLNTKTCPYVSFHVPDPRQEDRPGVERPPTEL
Method: Method 2: Prostaglandin Synthesis
0.3 ml of 0.03M potassium phosphate buffer of pH=8.0 contains 0.5 mg of enzyme (from seminal vesicles of sheep) (Biochemistry 10 (1971) 2372) or homogenate of the inner kidney medulla (Life Sciences 26 (1980) 765), 2.75 μg of ^14 C-arachidonic acid (0.5 μCi) and 0.5 mg of stimulator, and, if appropriate, 0.5 mg of stabilizer substance (see Table 1). After 10 minutes' incubation at 37° C., the reaction is stopped with 0.05 ml of 1.2M citric acid and the mixture is extracted with twice 0.5 ml of ethyl acetate, the combined extracts are freed of solvent, and the residue is dissolved in 0.2 ml of methanol, diluted 1:1 with water and separated by HPLC (nucleosil C-18 column, 125×4.6 mm, from Bischoff, Leonberg, Germany, solvent 300 ml of acetonitrile, 700 ml of water and 1 ml of glacial acetic acid and after 30 minutes pure methanol). The separation of the radioactive fractions is followed by a monitor (LB 504 from Berthold, Wildbad, Germany). The products formed, such as 6-keto-prostaglandin F2alpha, prostaglandin E2, prostaglandin F2alpha and prostaglandin D2, are separated under these conditions.
The prostaglandins PGE2, PGF2 alpha and PGD2 as products from arachidonic acid where quantified by means of method 2, and the sum was related as "total prostaglandin" to 100%. The quantity of "total prostaglandin" formed without the addition of a stimulator was set at f=1; the quantity formed after stimulation was related thereto. f=2 or f=3 therefore means twice or three times the stimulation under the conditions of method 2. The stability of the sample was investigated by means of method 1 (right-hand column). […] Values greater than 25-28% therefore represent a stabilization, and values smaller than 25-28% represent a destabilization. Example No. 1 was carried out without a stimulator. […] The substances test with respect to stabilization (see Method 1 for quantities) were: A) aqueous solution without stabilizer addition, B) ethanolic solution without further addition, C) pyridine solution, D) with rutin, predissolved in dimethyl sulfoxide, dimethyl sulfoxide then stripped off, E) like B) with lecithin, ethanol stripped off, F) like A) with cytochrome c from horse heart (from Boehringer, Mannheim, Germany), G) like A) with methemoglobin (human) (from Sigman, Munich, Germany), H) like A) with bovine serum albumin (from Calbiochem, Frankfurt, Germany), J) like A) or B), but solvent stripped off, K) like J) with cytochrome c, L) like J) with hemoglobin (human) (from Behringwerke, Marburg, Germany), and M) like J) with human serum albumin (from Behringwerke, Marburg, Germany).

[3] = Table 1, 0.5 mg stimulator, 10 min 37° C., without stimulator f=1
[4] = Table 1, share of total prostaglandin (=100%)
[5] = seminal vesicle enzyme, 10 min, pH 8
[6] = Table 2, share of total prostaglandin

Molecule: NC[C@H](O)c1ccc(O)c(O)c1 [noradrenalin, reference compound]
- undesired decomposition / byproducts of polyunsaturated fatty acid (arachidonic acid) with added stimulator [1]: considerably accelerated

Molecule: TrpMetAspPhe [Example 28]
- Stability (% remaining fatty acid by Method 1) ([1]; 1440 min): 97%
- relative total prostaglandin f [2, 3]: 11.8
- PGD2 % [2, 4]: 20%
- PGE2 % [2, 4]: 73%
- PGF2alpha % [2, 4]: 7%

Molecule: polyethylene glycol
- effect of solvent used instead of water on formation of undesired byproducts [1]: do not arise

Molecule: N[C@@H](Cc1c[nH]c2ccccc12)C(=O)O [tryptophan, reference compound]
- undesired decomposition / byproducts of polyunsaturated fatty acid (arachidonic acid) with added stimulator [1]: considerably accelerated

Molecule: N[C@@H](Cc1c[nH]c2ccc(O)cc12)C(=O)O [5-hydroxytryptophan, reference compound]
- undesired decomposition / byproducts of polyunsaturated fatty acid (arachidonic acid) with added stimulator [1]: considerably accelerated

Molecule: C[S+](C)[O-] [dimethyl sulfoxide]
- effect of solvent used instead of water on formation of undesired byproducts [1]: do not arise

Molecule: O=C[C@H](O)[C@@H](O)[C@H](O)[C@H](O)CO [glucose, reference compound]
- stabilization of aqueous mixtures of unsaturated fatty acid and stimulators [1]: not stabilizing

Molecule: CCCCC/C=C\C/C=C\C/C=C\C/C=C\CCCC(=O)O [arachidonic acid]
- Stability (% of remaining arachidonic acid by Method 1) ([1]; A) aqueous solution without stabilizer addition, 24 h 37° C.): 25-28%

Molecule: N[C@@H](Cc1ccc(O)cc1)C(=O)O [tyrosine]
- undesired decomposition / byproducts of polyunsaturated fatty acid (arachidonic acid) with added stimulator [1]: completely stable

Molecule: CCO [ethanol]
- effect of solvent used instead of water on formation of undesired byproducts [1]: do not arise

Molecule: OCC(O)CO [glycerol]
- effect of solvent used instead of water on formation of undesired byproducts [1]: do not arise

Molecule: rhamnoglucose [reference compound]
- stabilization of aqueous mixtures of unsaturated fatty acid and stimulators [1]: not stabilizing

Molecule: CNCC(O)c1ccc(O)c(O)c1 (stereo not shown) [adrenalin, reference compound]
- undesired decomposition / byproducts of polyunsaturated fatty acid (arachidonic acid) with added stimulator [1]: considerably accelerated

Molecule: OC[C@H]1O[C@@H]2O[C@H]3[C@H](O)[C@@H](O)[C@@H](O[C@H]4[C@H](O)[C@@H](O)[C@@H](O[C@H]5[C@H](O)[C@@H](O)[C@@H](O[C@H]6[C@H](O)[C@@H](O)[C@@H](O[C@H]7[C@H](O)[C@@H](O)[C@@H](O[C@H]8[C@H](O)[C@@H](O)[C@@H](O[C@H]9[C@H](O)[C@@H](O)[C@@H](O[C@H]1[C@H](O)[C@H]2O)O[C@@H]9CO)O[C@@H]8CO)O[C@@H]7CO)O[C@@H]6CO)O[C@@H]5CO)O[C@@H]4CO)O[C@@H]3CO [Example 64, gamma-Dextrin (Cyclooctaamylose)]
- Stabilization (% remaining unsaturated fatty acid by Method 1) ([1]; 1440 min): 75%

Molecule: OC[C@@H](O)[C@@H](O)[C@H](O)[C@@H](O)CO [sorbitol, reference compound]
- stabilization of aqueous mixtures of unsaturated fatty acid and stimulators [1]: not stabilizing

Molecule: Oc1ccc(O)cc1 [hydroquinone, reference compound]
- undesired decomposition / byproducts of polyunsaturated fatty acid (arachidonic acid) with added stimulator [1]: markedly greater quantity; also recorded: considerably accelerated

Molecule: c1ccncc1 [pyridine]
- effect of solvent used instead of water on formation of undesired byproducts [1]: additional destabilizing effect

Molecule: OC[C@H]1O[C@@H]2O[C@H]3[C@H](O)[C@@H](O)[C@@H](O[C@H]4[C@H](O)[C@@H](O)[C@@H](O[C@H]5[C@H](O)[C@@H](O)[C@@H](O[C@H]6[C@H](O)[C@@H](O)[C@@H](O[C@H]7[C@H](O)[C@@H](O)[C@@H](O[C@H]1[C@H](O)[C@H]2O)O[C@@H]7CO)O[C@@H]6CO)O[C@@H]5CO)O[C@@H]4CO)O[C@@H]3CO [Example 62, alpha-Dextrin (Cyclohexaamylose)]
- Stabilization (% remaining unsaturated fatty acid by Method 1) ([1]; 1440 min): 60%

Molecule: CCC(C)O (stereo not shown) [Example 2-butanol, 2-butanol]
- effect of solvent used instead of water on formation of undesired byproducts [1]: additional destabilizing effect

Molecule: O=C(O)CCCC[C@@H](S)CCS (racemic) [Example 42, Dihydrolipoic acid, reference compound]
- stimulation of prostaglandin synthesis with much smaller quantities of undesired byproducts ([2]; mixtures with polyunsaturated fatty acids such as arachidonic acid, result in words): not possible to achieve these advantageous effects
- relative total prostaglandin f [2, 5]: 1.0

Molecule: O=c1c(O)c(-c2ccc(O)c(O)c2)oc2cc(O)cc(O)c12 [Example 57, Quercetin]
- PGD2 % [2, 6]: 10%
- PGE2 % [2, 6]: 72%
- PGF2alpha % [2, 6]: 18%
- relative total prostaglandin f [2, 5]: 0.3

Molecule: TrpTrp [Example 24]
- relative total prostaglandin f [2, 3]: 11.7
- PGD2 % [2, 4]: 23%
- PGE2 % [2, 4]: 75%
- PGF2alpha % [2, 4]: 2%

Molecule: O=C(O)c1ccc(O)cc1 [Example 16]
- PGD2 % [2, 4]: 18%
- PGE2 % [2, 4]: 69%
- PGF2alpha % [2, 4]: 13%

Molecule: C[C@@H]1O[C@@H](OC[C@H]2O[C@@H](Oc3c(-c4ccc(O)c(O)c4)oc4cc(O)cc(O)c4c3=O)[C@H](O)[C@@H](O)[C@@H]2O)[C@H](O)[C@H](O)[C@H]1O [Example 52, Rutin]
- PGD2 % [2, 6]: 18%
- PGE2 % [2, 6]: 76%
- PGF2alpha % [2, 6]: 6%
- relative total prostaglandin f [2, 5]: 6
